These results are taken from patent US7153870B2, “Nicotinamide derivatives useful as PDE4 inhibitors” (Pfizer Inc., priority 2003, dated 2006).

Broadly, the pIC50 is −log10 of the IC50, conventionally taken in molar units.

pIC50: −log10 of the molar value.

This assay deals with TNFα release from human peripheral blood mononuclear cells. The assay is described as follows: Inhibition of LPS-stimulated TNFα release from human peripheral blood mononuclear cells (TNFα screen). Particulars: LPS-stimulated human PBMC, 18 hours incubation, TNFα in supernatant by ELISA. The class given is cell-based. The method, then:
Venous blood is collected from healthy volunteers and the mononuclear cells purified by centrifugation through Histopaque (Ficoll) cushions. TNFα production from these cells is stimulated by addition of lipopolysaccharide. After 18 hours incubation in the presence of LPS, the cell supernatant is removed and the concentration of TNFα in the supernatant determined by ELISA. Addition of PDE4 inhibitors reduces the amount of TNFα produced. An IC50 is determined which is equal to the concentration of compound that gives 50% inhibition of TNFα production as compared to the LPS stimulated control wells.
In the case of `CSc1cccc(Oc2ncc(F)cc2C(=O)N[C@H]2CC[C@@H](NC(=O)c3cc4ccccn4n3)CC2)c1` [Example 1, Syn-Pyrazolo[1,5-a]pyridine-2-carboxylic acid(4-{[5-fluoro-2-(3-methylsulfanyl-phenoxy) -pyridine-3-carbonyl]-amino}-cyclohexyl)-amide], the pIC50 was 10.00.
In turn, `CSc1cccc(Oc2ncc(F)cc2C(=O)N[C@H]2CC[C@@H](NC(=O)c3cccn4ccnc34)CC2)c1` [Example 6, Syn-Imidazo[1,2-a]pyridine-8-carboxylic acid(4-{[5-fluoro-2-(3-methylsulfanyl-phenoxy) -pyridine-3-carbonyl]-amino}-cyclohexyl)-amide] showed a pIC50 of 10.70.
The figure for `CSc1cccc(Oc2ncc(F)cc2C(=O)N[C@H]2CC[C@@H](NC(=O)c3cccc4nn[nH]c34)CC2)c1` [Example 7, Syn-3H-Benzotriazole-4-carboxylic acid(4-{[5-fluoro-2-(3-methylsulfanyl-Phenoxy) -pyridine-3-carbonyl]-amino}-cyclohexyl)-amide] is 9.40; for `CSc1cccc(Oc2ncc(F)cc2C(=O)N[C@H]2CC[C@@H](NC(=O)c3cccc4cccnc34)CC2)c1` [Example 8, Syn-Quinoline-8-carboxylic acid(4-{[5-fluoro-2-(3-methylsulfanyl-phenoxy) -pyridine-3-carbonyl]-amino}-cyclohexyl)-amide] it is 9.60.
In turn, `CSc1cccc(Oc2ncc(F)cc2C(=O)N[C@H]2CC[C@@H](NC(=O)c3cccc4cc(O)cnc34)CC2)c1` [Example 9, Syn-3-Hydroxy-quinoline-8-carboxylic acid(4-{[5-fluoro-2-(3-methylsulfanyl-phenoxy) -pyridine-3-carbonyl]-amino}-cyclohexyl)-amide] gave a pIC50 of 9.82.
`CSc1cccc(Oc2ncc(F)cc2C(=O)N[C@H]2CC[C@@H](NC(=O)c3nn(CCO)c4ccccc34)CC2)c1` [Example 10, Syn-1-(2-Hydroxy-ethyl)-1H-indazole-3-carboxylic acid(4-{[5-fluoro-2-(3-methylsulfanyl-phenoxy)-pyridine-3-carbonyl]-amino}-cyclohexyl)-amide] gave a pIC50 of 9.52.
“Syn-1-Isopropyl-1H-benzoimidazole-4-carboxylic acid(4-{[5-fluoro-2-(3-methylsulfanyl-phenoxy)-pyridine-3-carbonyl]-amino}-cyclohexyl)-amide [Example 2]” had a pIC50 of 9.00.
The figure for “Syn-1H-Indazole-3-carboxylic acid(4-{[5-fluoro-2-(3-methylsulfanyl-phenoxy) -pyridine-3-carbonyl]-amino}-cyclohexyl)-amide [Example 4]” is 8.70.
As to “Syn-2-Methyl-3H-benzoimidazole-4-carboxylic acid(4-{[5-fluoro-2-(3-methylsulfanyl-phenoxy)-pyridine-3-carbonyl]-amino}-cyclohexyl)-amide [Example 5]”, the pIC50 was 10.40.
The figure for “Syn-Imidazo[1,2-a]pyridine-2-carboxylic acid(4-{[5-fluoro-2-(3-methylsulfanyl -phenoxy)-pyridine-3-carbonyl]-amino}-cyclohexyl)-amide [Example 3]” is 10.00.
